One data set concerns LSECs. The conditions noted are these: known from the literature; cited from earlier work.
The conditions of data set [1]: established in previous literature; basis for dosing up to 100xCmax; read-out: Cmax (the maximum plasma concentration); cited from earlier work.
The subject of data set [2] is tri-cultures of hepatocytes with 3T3-J2 fibroblasts and either liver sinusoidal endothelial cells (LSECs) or human umbilical vein endothelial cells (HUVECs). The data set can be described thus: Drug toxicity screen: albumin secretions in hepatocyte/fibroblast/endothelia tri-cultures. The following applies: azathioprine 100x and 50xCmax, dacarbazine 100xCmax, monocrotaline 100xCmax; 6 days, serum-free media; tri-cultures with LSECs or HUVECs compared with hepatocyte/3T3-J2 co-cultures.
Protocol: Tissue culture polystyrene 24-well plates (Corning® Life Sciences) were coated for 2 hours with 25 μg/mL rat tail collagen-I (Corning® Life Sciences) and rinsed twice with sterile water. […] Cryopreserved PHHs after processing were seeded at a density of 6.67×10^5 cells/mL into collagen micropatterned wells (300 μL/well). After allowing 4-5 hours for cellular attachment and spreading onto collagen-coated islands, wells were washed 3× in DMEM base medium to remove unattached cells, leaving ˜3×10^4 PHHs per well in 24-well format (˜90 islands/well). Cultures in the co-planar arrangement were backfilled with fibronectin (2 μg/cm^2) before endothelia and 3T3-J2 fibroblasts were seeded 12-18 hours later and allowed to fill the remaining area surrounding the PHH islands. The hepatocyte:endothelial ratio was chosen to match the physiologic ratio of 5 hepatocytes (3×10^4 per well) to 1 endothelium (6×10^3 per well), and 3T3-J2 fibroblasts were added to bring the total stromal cell count to 9×10^4 cells per well. Cultures in the layered configuration were seeded with 9×10^4 3T3-J2 fibroblasts per well 12-18 hours after seeding PHHs to fill in remaining areas, overlaid with 250 μg/mL Matrigel® (Corning® Life Sciences), and then seeded with 6×10^3 endothelia per well the following day. […]
Hepatic morphological, functionality, and health assessments. The morphology of MPCCs was monitored using an EVOS® FL cell imaging system (Life Technologies) with standard 4×, 10×, and 20× phase contrast objectives. CYP3A4 activity in MPCCs was measured using the luminescence-based luciferin-IPA assay from Promega® (Madison, WI) per manufacturer's instructions. CYP2A6 was evaluated by treating the cultures with 50 μM coumarin for 1 hour and measuring the production of the metabolite 7-hydroxycoumarin. Albumin secretions were assessed with an enzyme-linked immunosorbent assay (ELISA) with horseradish peroxidase detection and 3,3′,5,5′-tetramethylbenzidine as the substrate. Urea production was measured via a colorimetric endpoint analysis with diacetylmonoxime, acid, and heat (Stanbio® Labs, Boerne, TX). […]

These results are taken from US12180507B2, “Engineered platforms to stabilize both hepatocytes and endothelial cells in vitro” (Colorado State University Research Foundation, priority 2015, dated 2024).

SMILES strings stand for the structures. Counter-ions that a name gives are not always drawn.

For `CCN(CC)CCOc1ccc(C(=C(Cl)c2ccccc2)c2ccccc2)cc1` [clomiphene citrate], the “Toxicity specific to LSECs rather than hepatocytes” value (from here on “Toxicity specific”) with LSECs is given as “toxicity specific to LSECs rather than hepatocytes”.

Regarding `C[C@H]1C(=O)O[C@@H]2CCN3CC=C(COC(=O)[C@](C)(O)[C@]1(C)O)[C@H]23` [monocrotaline], in data set [1], the Cmax is 10 µM. For the same molecule, in the data set on LSECs, the “Toxicity specific” value is “toxicity specific to LSECs rather than hepatocytes”. Besides, the “Albumin secretions (drug toxicity), normalized to DMSO-only controls” value in data set [2] is “more responsive to drug toxicity”.

As to `CN(C)/N=N/c1[nH]cnc1C(N)=O` [dacarbazine], the Cmax in data set [1] was 43.9 µM. Further, the “Toxicity specific” value in the data set with LSECs is “toxicity specific to LSECs rather than hepatocytes”. Further, the “Albumin secretions (drug toxicity), normalized to DMSO-only controls” value in data set [2] is “more responsive to drug toxicity”.

`Cn1cnc([N+](=O)[O-])c1Sc1ncnc2nc[nH]c12` [azathioprine]: in data set [1], the Cmax is 3.61 µM. Besides, the “Toxicity specific” value in the data set with LSECs was “toxicity specific to LSECs rather than hepatocytes”. Besides, the “Albumin secretions (drug toxicity), normalized to DMSO-only controls” value in data set [2] was “more responsive to drug toxicity”.
